This data set relates to Drosophila. Description: Drosophila development, viability and life span on compound food. The data set is classed as in vivo.

One compound from patent publication US9988403B2, “Compositions and methods for treating cancer with aberrant lipogenic signaling” (Thomas Jefferson University, priority 2012, dated 2018) can be followed below.

Structures are written as SMILES.

As for `CC1(C)OB(c2ccc(/C=C/c3ccc(O)cc3)cc2)OC1(C)C` [BF102], under “200 μM in food”, the “Drosophila development and viability” value is recorded as “do not affect”. Further, under “adult flies fed food mixed with compound, data not shown”, the “life span of adult flies” value was “do not have any obvious effect”.
